Results published in patent US20100196469A1, “Pharmaceutical Formulation containing an HMG-COA Reductase Inhibitor and method for the preparation thereof” (PHARMATHEN S.A., priority 2007, published 2010).
Where a name gives a salt, the structure may show the parent alone.

What was measured:
Assay type in all cases: physicochemical
[1] = Stability of unpacked tablets at 40° C.±2° C. and 75%±5% RH (impurities); settings: 40°/75 RH
Description: (§1) One of the main objects of the present invention was to prepare a product with acceptable stability. For this reason 3 batches of each composition were exposed to normal, intermediate and accelerated stability studies according to the current ICH guidelines.
The tablets of the above compositions were exposed at a temperature of 40° C.±2° C. and relative humidity of 75%±5% without being packed in any type of container or blister. The tablets were tested in predetermined time intervals. The results for each composition are described in the stability table (TABLE 1).

[2] = Compatibility test of Atorvastatin alone and Atorvastatin with Attapulgite at 40° C./75% RH (impurities)
[3] = Stability after preparation and after 3 months in HDPE containers, normal and intermediate conditions (impurities); settings: for Atorvastatin Amide / Desfluoro: limit NMT 0.3%; for Atorvastatin Diepoxide: limit NMT 0.6%; for Diketo1,2-Diol + Diketoepoxide: limit NMT 1.20%; for Lactone: limit NMT 2%; for Total: total impurities; for Unknown: unknown impurity
Description: as §1
Subsequently, the tablets of compositions 2 were packed into white opaque, HDPE plastic […] C.±2° C. and relative humidity of 65%±5% for intermediate conditions. The results for composition 2 and of the active ingredient directly after preparation and after 3 months stability are described in the stability table below (TABLE 3).

Atorvastatin Amide [1]: 0.07%
Atorvastatin Diepoxide [1]: 0.34%
Desfluoro [1]: 0.08%
Diketo1,2-Diol + Diketoepoxide [1]: 0.69%
Lactone [1]: 0.45%
Total ([1]; total impurities): 1.87%
Diketo1,2-Diol + Diketoepoxide ([2]; limit 1.20%): 0.39%
Atorvastatin Amide ([2]; limit NMT 0.3%): 0.05%
Desfluoro ([2]; limit NMT 0.3%): 0.07%
Methyl Ester ([2]; limit NMT 0.3%): 0.01%
Atorvastatin Diepoxide ([2]; limit NMT 0.6%): 0.20%
Lactone ([2]; limit NMT 2%): 0.34%
Total ([2]; total impurities): 1.29%
Atorvastatin Amide ([3]; 0 months): 0.06%
Desfluoro ([3]; 0 months): 0.06%
Atorvastatin Diepoxide ([3]; 0 months): 0.25%
Diketo1,2-Diol + Diketoepoxide ([3]; 0 months): 0.84%
Lactone ([3]; 0 months): 0.07%
Total ([3]; 0 months): 1.69%
Unknown ([3]; 0 months): 0.34%
Atorvastatin Amide ([3]; 3 months 25° C./60% RH): 0.06%
Desfluoro ([3]; 3 months 25° C./60% RH): 0.03%
Atorvastatin Diepoxide ([3]; 3 months 25° C./60% RH): 0.30%
Diketo1,2-Diol + Diketoepoxide ([3]; 3 months 25° C./60% RH): 0.92%
Lactone ([3]; 3 months 25° C./60% RH): 0.05%
Total ([3]; 3 months 25° C./60% RH): 1.96%
Unknown ([3]; 3 months 25° C./60% RH): 0.38%
Atorvastatin Amide ([3]; 3 months 30° C./65% RH): 0.06%
Desfluoro ([3]; 3 months 30° C./65% RH): 0.03%
Atorvastatin Diepoxide ([3]; 3 months 30° C./65% RH): 0.38%
Diketo1,2-Diol + Diketoepoxide ([3]; 3 months 30° C./65% RH): 1.10%
Lactone ([3]; 3 months 30° C./65% RH): 0.05%
Total ([3]; 3 months 30° C./65% RH): 2.12%
Unknown ([3]; 3 months 30° C./65% RH): 0.4%
Structure (SMILES): CC(C)c1c(C(=O)Nc2ccccc2)c(-c2ccccc2)c(-c2ccc(F)cc2)n1CC[C@@H](O)C[C@@H](O)CC(=O)O (relative stereo) [Atorvastatin, [R—(R*,R*)]-2-(4-fluorophenyl)-b,d-dihydroxy-5-(1-methylethyl)-3-phenyl-4[(phenylamino)carbonyl]-1H -pyrrole-1-heptanoic acid, calcium salt (2:1) trihydrate]
